Test results taken from publication PMC6271088, “Quantification of the Resveratrol Analogs trans-2,3-Dimethoxy-stilbene and trans-3,4-Dimethoxystilbene in Rat Plasma: Application to Pre-Clinical Pharmacokinetic Studies” (Molecules, 2014).
Entries after “also recorded” stand apart in the source; their conditions may differ. Where two headings read alike, the source gives them in different places.

What was measured:
[1] = Post-preparative stability (processed samples in auto-sampler vial); type: physicochemical; conditions: rat, Post-preparative samples stored at 24 °C for 24 h, read-out: Stability (% Remained); for remaining at 24 h, 25 ng/mL: spiked 25 ng/mL; for remaining at 24 h, 400 ng/mL: spiked 400 ng/mL; for remaining at 24 h, 1400 ng/mL: spiked 1400 ng/mL
Description: (§1) Stock solutions of analytes were prepared in DMSO to a final concentration of 1 mg/mL, stored at room temperature (24 °C) and protected from light. The internal standard (IS) (trans-stilbene) was prepared by dissolving in acetonitrile and diluted to 100 ng/mL (working solution). Equal volumes of rat liver microsome (RLM) and trans-stilbene–acetonitrile working solution were mixed to quench the reaction. After vigorous vortexing for 20 s, the samples were centrifuged at 6,000 g for 10 min at 4 °C. Rat plasma samples were processed by adding trans-stilbene–acetonitrile working solution to rat plasma in 3:1 ratio. After vigorous vortexing for 20 s, the samples were centrifuged at 10,000 g for 4 min at 4 °C. Finally, the supernatant was transferred into a glass insert that was pre-installed in a 1.5 mL auto-sampler vial. During each assay, 75 µL supernatant was injected into the HPLC-UV system.
(§2) Stabilities of 2,3-DMS in stock solution were evaluated after storage at room temperature for eight days. Stability of 2,3-DMS in rat plasma under different conditions was profiled with QC samples. Freeze-thaw stability was assessed after three freeze (−80 °C)–thaw (24 °C) cycles. Short-term room temperature stability (24 °C) of 2,3-DMS in rat plasma was examined after storing such samples at room temperature for 6 h. Long-term storage stability of 2,3-DMS in rat plasma was studied after being stored at −80 °C for 10 days. Post-preparative stability study was conducted by re-analyzing samples (kept in auto-sampler vial at room temperature) 24 h later. The stability of 3,4-DMS was assessed in the same way. Samples were considered stable if analytical responses were within 100% ± 15% of corresponding freshly prepared samples.

[2] = Stock solution stability (DMSO stock, room temperature); type: physicochemical; conditions: Stock solution stored at 24 °C for 8 days, read-out: Stability (% Remained)
Description: as §1
Stabilities of 2,3-DMS in stock solution were evaluated after storage at room temperature for eight days. Stability of 2,3-DMS in rat plasma under different conditions was profiled with QC samples. Freeze-thaw stability was assessed after three freeze (−80 °C)–thaw (24 °C) cycles. Short-term room temperature stability (24 °C) of 2,3-DMS in rat plasma was examined after storing such samples at room temperature for 6 h. […] The stability of 3,4-DMS was assessed in the same way. […]

[3] = Rat liver microsome metabolic stability; type: in vitro ADME, Sprague-Dawley rat; conditions: for half-life at 0.6 µg/mL: Sprague-Dawley, pH 7.4, in the presence of NADPH, 37 °C; for half-life at 0.6 µg/mL / compound remained after microsomal incubation: rat liver microsomes; for stability in acetonitrile-inactivated microsomes: acetonitrile-inactivated microsomes (chemical stability); for compound remained after microsomal incubation: in the absence of NADPH, 45 min incubation
Description: RLM metabolic stabilities of 2,3-DMS and 3,4-DMS were examined by mixing Sprague-Dawley RLM with potassium phosphate buffer (pH = 7.4), NADPH regenerating solution B and either compounds to achieve a final compound concentration of 0.6 µg/mL. Negative control was set up, using Milli-Q water in place of NADPH. Chemical stability of compound in inactivated RLM was checked using similar system with acetonitrile/Milli-Q mixture instead of phosphate buffe.
Pre-incubation was done in 37 °C water bath for 5 min before NADPH A was added to initiate reaction. Aliquots were drawn at 0, 5, 15, 25, 35 and 45 min and quenched using ice cold trans-stilbene–acetonitrile working solution. Chemical stability was monitored at 0, 25 and 45 min. The samples were further processed for HPLC analysis as described above.
To assess extent of metabolism, percentage of compound remaining at each time point with respect to 0 min was calculated. Mean and standard deviation was obtained from column statistics using GraphPad Prism 5, version 5.03 for Windows, via raw means from the six replicates of each setup. Elimination half-lives were obtained from non-linear regression via one-phase exponential decay, where x was time in minutes, y was percentage remaining with respect to 0 min and a weighting factor of 1/y^2 was used.

[4] = Stability in rat plasma (QC samples: short-term, freeze-thaw, long-term); type: in vitro ADME; conditions: read-out: Stability (% Remained); for remaining at 25 ng/mL / remaining at 400 ng/mL / remaining at 1400 ng/mL: Plasma samples after three freeze-thaw cycles; for remaining at 25 ng/mL / remaining at 6 h, 25 ng/mL / remaining at 240 h, 25 ng/mL: spiked 25 ng/mL; for remaining at 400 ng/mL / remaining at 6 h, 400 ng/mL / remaining at 240 h, 400 ng/mL: spiked 400 ng/mL; for remaining at 1400 ng/mL / remaining at 6 h, 1400 ng/mL / remaining at 240 h, 1400 ng/mL: spiked 1400 ng/mL; for remaining at 6 h, 25 ng/mL / remaining at 6 h, 400 ng/mL / remaining at 6 h, 1400 ng/mL: Plasma samples stored at 4 °C for 6 h; for remaining at 240 h, 25 ng/mL / remaining at 240 h, 400 ng/mL / remaining at 240 h, 1400 ng/mL: Plasma samples stored at −80 °C for 10 days
Description: as §2, with “Short-term room temperature stability (24 °C) of 2,3-DMS in rat plasma was examined after storing such samples at room temperature for 6 h.” left out

[5] = Oral pharmacokinetics in Sprague-Dawley rats; type: in vivo; conditions: for post-dosing plasma samples above LLOQ (10 ng/mL): six rats
Description: (§3) This animal model has been used to investigate the pharmacokinetics of various stilbenes. The animal handling protocol was reviewed and approved by the Institutional Animal Care and Use Committee of the National University of Singapore (NUS). All animal experiments were carried out in Comparative Medicine Centre of NUS. Sprague-Dawley rats (male, 346 ± 18 g, bred by Centre for Animal Resources, NUS) were maintained on a 12 h light/dark cycle with free access to food and water. Polyethylene tube (inner diameter (I.D.) 0.58 mm, outside diameter (O.D.) 0.965 mm, Becton Dickinson, Sparks, MD, USA) was implanted into the right jugular vein under anaesthesia on the day before pharmacokinetic study. This catheter was used for intravenous drug administration as well as for blood sampling.
(§4) Twenty-two rats were divided into four groups. Group 1 and Group 2 (n = 5) received single intravenous bolus dose (4 mg/kg) of 2,3-DMS and 3,4-DMS respectively. Serial blood samples were collected before dosing (0 min) and at 5, 15, 30, 60, 90, 120, 180, 300, 480 and 660 min post-dosing. Group 3 and Group 4 (n = 6) received single oral dose (10 mg/kg) of 2,3-DMS and 3,4-DMS respectively through oral gavage and serial blood samples were collected before dosing (0 min) and at 15, 30, 45, 60, 90, 120, 180, 300, 480 and 660 min post-dosing. 0.3 mL heparin-saline (10 I.U./mL) was used to flush the cannular after each intravenous injection or blood sampling to maintain its patency. Blood samples were centrifuged at 3500 g at 4 °C for 5 min and plasma was collected and stored at −80 °C.
(§5) Pharmacokinetic parameters were derived using WinNonlin standard version 1.0 (Scientific Consulting Inc., Apex, NC, USA). […] Plasma exposure (area under the plasma concentration-time curve from 0 min to last measurable point (AUC0→last)) in rats receiving intravenous administration was calculated by the linear/log trapezoidal rule while the linear trapezoidal rule was used to calculate the plasma exposure in rats receiving oral administration. Clearance (Cl0→last), mean transit time (MTT0→last) and terminal half-life (t1/2 λZ) were calculated using non-compartmental analysis. Maximal plasma concentration (Cmax) and the time required to reach (tmax) were from direct experimental observations. Absolute oral bioavailability (F) of 2,3-DMS was calculated through reported method.

[6] = Intravenous pharmacokinetics in Sprague-Dawley rats; type: in vivo; conditions: intravenous 4 mg/kg; for plasma level relative to LLOQ (10 ng/mL) over sampling period: sampling up to 660 min; for B / α / β / A: two-compartment model; for A: HP-β-CD formulation; for AUC(0-t) / clearance / Vd / half-life: male, Sprague-Dawley, rat, plasma; for clearance: read-out: Cl (clearance); for Vd: read-out: Vc (volume of distribution of the central compartment); for half-life: read-out: t1/2 λZ (terminal elimination half-life)
Description: as §3, §4, §5

[7] = cited from earlier work

Structure (SMILES) | remaining at 24 h, 25 ng/mL [1] [%] | remaining at 24 h, 400 ng/mL [1] [%] | remaining at 24 h, 1400 ng/mL [1] [%] | remaining at 192 h, 1 mg/mL [2] [%] | half-life at 0.6 µg/mL [3] [h] | stability in acetonitrile-inactivated microsomes [3] | compound remained after microsomal incubation [3] | remaining at 25 ng/mL [4] [%] | remaining at 400 ng/mL [4] [%] | remaining at 1400 ng/mL [4] [%] | remaining at 6 h, 25 ng/mL [4] [%] | remaining at 6 h, 400 ng/mL [4] [%] | remaining at 6 h, 1400 ng/mL [4] [%] | remaining at 240 h, 25 ng/mL [4] [%] | remaining at 240 h, 400 ng/mL [4] [%] | remaining at 240 h, 1400 ng/mL [4] [%] | post-dosing plasma samples above LLOQ (10 ng/mL) ([5]; oral 10 mg/kg) | plasma level relative to LLOQ (10 ng/mL) over sampling period [6] | B [6] [ng/mL] | oral bioavailability (in words) [7] | other results
COc1cccc(/C=C/c2ccccc2)c1OC [2,3-DMS, trans-2,3-Dimethoxystilbene] | 97.2 ± 2.5 | 100.1 ± 0.5 | 100.6 ± 0.7 | 98.1 ± 2.1 | 0.237 | good stability | 46.6% ± 4.6% | 102 ± 4.5 | 93.2 ± 1.2 | 91.8 ± 2.6 | 94.9 ± 4.4 | 95.5 ± 1.1 | 95.4 ± 0.6 | 107 ± 6.6 | 96.6 ± 4.7 | 93.5 ± 4.1 | 32 out of 60 | remained quantifiable throughout our sampling period | 135.6 ± 40.6 | – | Cmax ([5]; male, Sprague-Dawley, rat, plasma, oral 10 mg/kg): 37.5 ± 23.7 ng/mL; bioavailability ([5]; male, Sprague-Dawley, rat, plasma, oral 10 mg/kg vs intravenous 4 mg/kg, read-out: F (oral bioavailability)): 2.22 ± 2.13%; AUC(0-t) ([5]; male, Sprague-Dawley, rat, plasma, oral 10 mg/kg, HP-β-CD formulation): 64.3 ng·h/mL; MTT0→last (mean transit time) ([5]; oral 10 mg/kg): 83.2 ± 67.4 min; MTT0→last (mean transit time) [6]: 131.0 ± 4.5 min; α [6]: 5.02 ± 1.76 10^−2 × min^−1; β [6]: 3.08 ± 0.73 10^−3 × min^−1; A [6]: 1384.1 ± 251.4 ng/mL; AUC(0-t) [6]: 1160 ng·h/mL; clearance [6]: 52 ± 7 mL/min/kg; Vd [6]: 2.71 ± 0.51 L/kg; half-life [6]: 4.81 ± 1.55 h
COc1cc(C=Cc2cc(OC)c(OC)c(OC)c2)cc(OC)c1 [3,4,5,3',5'-pentamethoxystilbene] | – | – | – | – | – | – | – | – | – | – | – | – | – | – | – | – | – | – | – | excellent or quite good oral bioavailability | –
COc1ccc(/C=C/c2ccccc2)cc1OC [3,4-DMS, trans-3,4-dimethoxystilbene] | 98.1 ± 5.7 | 98.1 ± 1.8 | 100.1 ± 0.6 | 96.7 ± 2.7 | 0.277 | good stability | 78.1% ± 5.3% | 106 ± 5.2 | 93.4 ± 0.7 | 92.4 ± 2.4 | 104 ± 6.6 | 94.7 ± 0.7 | 96.2 ± 0.4 | 91 ± 13.8 | 93.6 ± 4.6 | 93 ± 3.7 | three post-dosing samples collected from one out of six rats | became unmeasurable at 11 h | 55.9 ± 26.1 | – | oral bioavailability (in words) ([5]; oral 10 mg/kg, 10 mg/kg): even poorer than 2,3-DMS; also recorded: almost nil; clearance relative to rat hepatic blood flow [6]: three-fold; α [6]: 5.25 ± 1.45 10^−2 × min^−1; β [6]: 3.85 ± 2.45 10^−3 × min^−1; A [6]: 702.7 ± 148.5 ng/mL; MTT0→last (mean transit time) ([6]; 4 mg/kg): 61.4 ± 27.1 min; AUC(0-t) [6]: 427 ng·h/mL; clearance [6]: 143 ± 40.5 mL/min/kg; Vd [6]: 5.58 ± 1.73 L/kg; half-life [6]: 3.22 ± 2.05 h
COc1ccc(/C=C/c2cc(OC)cc(OC)c2)cc1 [3,5,4'-trimethoxysilbene, trans-3,5,4'-trimethoxystilbene] | – | – | – | – | – | – | – | – | – | – | – | – | – | – | – | – | – | – | – | excellent or quite good oral bioavailability | –
Oc1cc(O)cc(/C=C/c2ccccc2)c1 [pinosylvine, trans-3,5-dihydroxystilbene] | – | – | – | – | – | – | – | – | – | – | – | – | – | – | – | – | – | – | – | much poorer than resveratrol | –
COc1cc(/C=C/c2ccc(OC)c(OC)c2)cc(OC)c1 [trans-3,5,3',4'-tetramethoxystilbene] | – | – | – | – | – | – | – | – | – | – | – | – | – | – | – | – | – | – | – | excellent or quite good oral bioavailability | –
